Measurements from US20080268072A1, “Method of Improving Anticancer Effect of Pulsatillae Radix and a Composition Prepared by the Method” (Song-Bae Kim, priority 2004, published 2008).

Legend:
[1] = test system: tumor; assay: Antitumor activity (test not specified)
[2] = test system: LL/2 cancer; conditions: BDF1 mouse; cited from earlier work
[3] = test system: NCI-H23 cell line; conditions: comparison with adriamicine; cited from earlier work

Compound | antitumor activity [1] | inhibition effect against LL/2 cancer [2] | activity against NCI-H23 cell line compared with adriamicine [3]
3-0-[0-α-L-rhamnopyranosyl-(1→2)-[0-β-D-glucopyranosyl-(1→4)]-α-L-arabinopyranosyl]hederagenin 28-0-α-L-rhamnopyranosyl-(1→4-[0-β-D-glucopyranosyl-(1→6]-β-D-glucopyranosyl ester [SB 365-0] | no antitumor activity | – | –
CC1OC(OC2C(O[C@H]3CC[C@@]4(C)C(CC[C@]5(C)C4CC=C4C6CC(C)(C)CC[C@]6(C(=O)O)CC[C@]45C)[C@]3(C)CO)OCC(OC3OC(CO)C(O)C(O)C3O)C2O)C(O)C(O)C1O (stereo partly drawn) [SB365, 3-0-[0-α-L-rhamnopyranosyl-(1→2)-[0-β-D-glucopyranosyl-(1→4)]-α-L-arabinopyranosyl]hederagenin] | – | 80% | more strong activity
